Assay results taken from US8017629B2, “Compounds and uses thereof in modulating amyloid β” (Neurogenetic Pharmaceuticals, Inc., priority 2003, dated 2011).

System: Aβ42 levels in the extracellular medium
Test: FRET (HTRF) assay, Aβ42 level of the extracellular medium of SH-SY5Y-APP cells
Assay type: cell-based
Conditions: Homo sapiens, concentration at which reduction of Aβ42 level was half of the maximum reduction, read-out: Ab42 Potency
Experimental: Compounds were evaluated for activity in modulating Aβ42 and Aβ40 levels in the extracellular medium using a homogeneous time-resolved fluorescence (HTRF) assay as follows.
For the HTRF assay, either 5 or 10 μl of supernatant from treated cells was added to 10 or 15 μl of labeled antibody pairs, for a total volume of 20 μl, and incubated for 20-24 hours at 4° C. The labeled antibody pairs were either 8000 pg B436-XL665 and 400 pg B113 Europium, for assessing Aβ40 levels, or 8000 pg B436-XL665 and 400 pg A387 Europium, for assessing Aβ42 levels, diluted in 50 mM NaPO4, 0.2% BSA, 0.5M KF, pH 7. The fluorescence was read on a BMG Rubystar at 620 nm and 665 nm.

| SMILES | EC50 |
| --- | --- |
| COc1ccc(-c2csc(Nc3ccc(OC)c(OC)c3)n2)c(OC)c1 [Compound 101] | 1.1 to 5 µM |
| COc1cc(Nc2nc(-c3ccc4c(c3)OCCO4)cs2)cc(OC)c1OC [Compound 102] | 5.1 to 10 µM |
| c1cc2c(cc1Nc1nc(-c3ccc4c(c3)OCCO4)cs1)OCO2 [Compound 103] | 5.1 to 10 µM |
| COc1ccc(-c2csc(Nc3ccc4c(c3)OCO4)n2)c(OC)c1 [Compound 104] | 1.1 to 5 µM |
| c1cc2c(cc1Nc1nc(-c3ccc4c(c3)OCO4)cs1)OCO2 [Compound 105] | 1.1 to 5 µM |
| COc1cc(Nc2nc(-c3ccc(-c4ccccn4)s3)cs2)cc(OC)c1OC [Compound 106] | 5.1 to 10 µM |
| COc1cc(Nc2nc(-c3ccc(-c4ccccc4)s3)cs2)cc(OC)c1OC [Compound 107] | 10.1 to 30 µM |
| COc1cc(Nc2nc(-c3ccc(F)cc3)cs2)cc(OC)c1OC [Compound 108] | 5.1 to 10 µM |
| COc1cc(Nc2nc(-c3ccc(OC(F)F)cc3)cs2)cc(OC)c1OC [Compound 109] | 10.1 to 30 µM |
| COc1ccc(Nc2nc(-c3ccc4c(c3)OCCO4)cs2)cc1OC [Compound 110] | 5.1 to 10 µM |
| Oc1ccc(-c2csc(Nc3ccc4c(c3)OCO4)n2)cc1O [Compound 111] | 1.1 to 5 µM |
| COc1cc(Nc2nc(-c3ccc(O)c(O)c3)cs2)cc(OC)c1OC [Compound 112] | 10.1 to 30 µM |
| COc1ccc(Nc2nc(-c3ccc(N4CCCC4)cc3)cs2)cc1OC [Compound 113] | 5.1 to 10 µM |
| COc1ccc(-c2csc(Nc3ccc(N(C)C)cc3)n2)c(OC)c1 [Compound 114] | 0.2 to 1 µM |
| CN1CCN(c2ccc(-c3csc(Nc4ccc5c(c4)OCO5)n3)cc2)CC1 [Compound 115] | 1.1 to 5 µM |
| COc1cc(Nc2nc(-c3ccc(N4CCN(C)CC4)cc3)cs2)cc(OC)c1OC [Compound 116] | 1.1 to 5 µM |
| CN1CCN(c2ccc(-c3csc(Nc4ccc(N(C)C)cc4)n3)cc2)CC1 [Compound 117] | 5.1 to 10 µM |
| Oc1ccc(Nc2nc(-c3ccc4c(c3)OCO4)cs2)cc1 [Compound 118] | 5.1 to 10 µM |

| SMILES | EC50 |
| --- | --- |
| COc1ccc(Nc2nc(-c3ccc4c(c3)CCC(=O)N4)cs2)c(OC)c1 [Compound 120] | 10.1 to 30 µM |
| Oc1ccc(Nc2nc(-c3ccc(-c4ccccc4)cc3)cs2)cc1 [Compound 121] | 5.1 to 10 µM |
| CCN(CC)c1ccc(-c2csc(Nc3ccc(OC)cc3OC)n2)cc1 [Compound 122] | 1.1 to 5 µM |
| CCN(CC)c1ccc(-c2csc(Nc3ccc(O)cc3)n2)cc1 [Compound 123] | 10.1 to 30 µM |
| Oc1ccc(Nc2nc(-c3ccc4ccccc4c3)cs2)cc1 [Compound 124] | 5.1 to 10 µM |
| COc1ccc(-c2csc(Nc3ccc(I)cc3)n2)c(OC)c1 [Compound 125] | 1.1 to 5 µM |
| CN1CCN(c2ccc(-c3csc(Nc4ccc(I)cc4)n3)cc2)CC1 [Compound 126] | 1.1 to 5 µM |
| CN1CCN(c2ccc(-c3csc(Nc4ccc5ccccc5c4)n3)cc2)CC1 [Compound 127] | 1.1 to 5 µM |
| CN1CCN(c2ccc(-c3csc(Nc4cccc5cccnc45)n3)cc2)CC1 [Compound 128] | 1.1 to 5 µM |
| COc1ccc(-c2csc(Nc3ccc(Br)cc3)n2)c(OC)c1 [Compound 129] | 0.2 to 1 µM |
| COc1ccccc1-c1csc(Nc2ccc(Br)cc2)n1 [Compound 130] | 10.1 to 30 µM |
| COc1cccc(Nc2nc(-c3ccc(N=Nc4ccccc4)cc3)cs2)c1 [Compound 131] | 10.1 to 30 µM |
| CCc1ccc(Nc2nc(-c3ccc(N4CCN(C)CC4)cc3)cs2)cc1 [Compound 132] | 10.1 to 30 µM |
| CCN(CC)c1ccc(Nc2nc(-c3ccc(-n4ccnc4)cc3)cs2)c(C)c1 [Compound 133] | 0.2 to 1 µM |
| CN1CCN(c2ccc(-c3csc(Nc4ccc5c(c4)OCCO5)n3)cc2)CC1 [Compound 134] | 1.1 to 5 µM |
| COc1cccc(CNc2nc(-c3ccc(N4CCN(C)CC4)cc3)cs2)c1 [Compound 135] | 1.1 to 5 µM |
| CCOc1ccc(Nc2nc(-c3ccc(N4CCN(C)CC4)cc3)cs2)cc1 [Compound 136] | 10.1 to 30 µM |

Continued, values first:

| EC50 | SMILES |
| --- | --- |
| 1.1 to 5 µM | COc1ccc(Nc2nc(-c3ccc(N4CCN(C)CC4)cc3)cs2)cc1 [Compound 137] |
| 10.1 to 30 µM | CN1CCN(c2ccc(-c3csc(Nc4ccc(Br)cc4)n3)cc2)CC1 [Compound 138] |
| 0.2 to 1 µM | CN1CCN(c2ccc(-c3csc(Nc4ccc(Cl)c(Cl)c4)n3)cc2)CC1 [Compound 139] |
| 5.1 to 10 µM | CN1CCN(c2ccc(-c3csc(Nc4ccc5c(cnn5C)c4)n3)cc2)CC1 [Compound 140] |
| 1.1 to 5 µM | CN1CCN(c2ccc(-c3csc(Nc4ccc5[nH]ncc5c4)n3)cc2)CC1 [Compound 141] |
| 1.1 to 5 µM | CN1CCN(c2ccc(-c3csc(Nc4ccc(Oc5ccccc5)cc4)n3)cc2)CC1 [Compound 142] |
| 1.1 to 5 µM | c1cn(-c2ccc(-c3csc(Nc4ccc5[nH]ccc5c4)n3)cc2)cn1 [Compound 143] |
| 0.2 to 1 µM | CSc1cccc(Nc2nc(-c3ccc(-n4ccnc4)cc3)cs2)c1 [Compound 144] |
| 1.1 to 5 µM | CSc1cccc(Nc2nc(-c3ccc(N4CCN(C)CC4)cc3)cs2)c1 [Compound 145] |
| 1.1 to 5 µM | CC(C)N(c1ccccc1)c1ccc(Nc2nc(-c3ccc(-n4ccnc4)cc3)cs2)cc1 [Compound 146] |
| 1.1 to 5 µM | CCN(CC)c1ccc(Nc2nc(-c3ccc(-n4cnc(-c5ccccc5)c4)cc3)cs2)c(C)c1 [Compound 147] |
| 0.2 to 1 µM | CN1CCN(c2ccc(-c3csc(Nc4ccc(Cl)cc4)n3)cc2)CC1 [Compound 148] |
| 5.1 to 10 µM | CN(C)S(=O)(=O)c1ccc(-c2csc(Nc3ccc(Cl)cc3)n2)cc1 [Compound 149] |
| 1.1 to 5 µM | COc1ccc(-c2csc(Nc3ccc(Cl)cc3)n2)c(OC)c1 [Compound 150] |
| 0.2 to 1 µM | CN1CCN(c2ccc(-c3csc(Nc4cccc(Cl)c4)n3)cc2)CC1 [Compound 151] |
| 10.1 to 30 µM | Clc1cccc(Nc2nc(-c3ccc(-n4ccnc4)cc3)cs2)c1 [Compound 152] |
| 5.1 to 10 µM | COc1ccc(-c2csc(Nc3cccc(Cl)c3)n2)c(OC)c1 [Compound 153] |
| 10.1 to 30 µM | Clc1cccc(Nc2nc(-c3ccc4c(c3)OCO4)cs2)c1 [Compound 154] |
| 1.1 to 5 µM | CN1CCN(c2ccc(-c3csc(Nc4ccc5[nH]cnc5c4)n3)cc2)CC1 [Compound 155] |
| 1.1 to 5 µM | c1cn(-c2ccc(-c3csc(Nc4ccc5[nH]cnc5c4)n3)cc2)cn1 [Compound 156] |
| 10.1 to 30 µM | CN(C)S(=O)(=O)c1ccc(-c2csc(Nc3ccc4[nH]cnc4c3)n2)cc1 [Compound 157] |
| 10.1 to 30 µM | CCN(CC)c1ccc(-c2csc(Nc3ccc4[nH]cnc4c3)n2)cc1 [Compound 158] |
| 5.1 to 10 µM | c1ccc2cc(-c3csc(Nc4ccc5[nH]cnc5c4)n3)ccc2c1 [Compound 159] |
| 0.2 to 1 µM | COc1ccc(-c2csc(Nc3ccc4[nH]cnc4c3)n2)c(OC)c1 [Compound 160] |
| 5.1 to 10 µM | c1nc2cc(Nc3nc(-c4ccc5c(c4)OCO5)cs3)ccc2[nH]1 [Compound 161] |

| EC50 | SMILES |
| --- | --- |
| 1.1 to 5 µM | CCN1CCN(c2ccc(-c3csc(Nc4ccc5c(c4)OCO5)n3)cc2)CC1 [Compound 162] |
| 5.1 to 10 µM | CCCN(c1ccc2c(c1)OCO2)c1nc(-c2ccc(N3CCN(C)CC3)cc2)cs1 [Compound 163] |
| 5.1 to 10 µM | c1cc2c(cc1Nc1nc(-c3ccc(N4CCN(CC5CC5)CC4)cc3)cs1)OCO2 [Compound 164] |
| 5.1 to 10 µM | CSc1cccc(Nc2nc(-c3ccc(N(C)C)cc3)cs2)c1 [Compound 165] |
| 0.2 to 1 µM | CSc1cccc(Nc2nc(-c3ccc(N4CCCC4)cc3)cs2)c1 [Compound 166] |
| 5.1 to 10 µM | CSc1cccc(Nc2nc(-c3ccc4c(c3)OCCO4)cs2)c1 [Compound 167] |
| 1.1 to 5 µM | CSc1cccc(Nc2nc(-c3ccc(-c4ccccc4)cc3)cs2)c1 [Compound 168] |
| 10.1 to 30 µM | CC(C)N(c1ccccc1)c1ccc(Nc2nc(-c3ccncc3)cs2)cc1 [Compound 169] |
| 1.1 to 5 µM | c1cc(Nc2nc(-c3ccncc3)cs2)c2cn[nH]c2c1 [Compound 170] |
| 1.1 to 5 µM | COc1ccc(-c2csc(Nc3cccc4[nH]ncc34)n2)c(OC)c1 [Compound 171] |
| 1.1 to 5 µM | c1cc(Nc2nc(-c3ccc4c(c3)OCO4)cs2)c2cn[nH]c2c1 [Compound 172] |
| 1.1 to 5 µM | Clc1ccc(Nc2nc(-c3ccc(-n4ccnc4)cc3)cs2)cc1Cl [Compound 173] |
| 10.1 to 30 µM | CCCN(c1ccc(Cl)c(Cl)c1)c1nc(-c2ccc(-n3ccnc3)cc2)cs1 [Compound 174] |
| 10.1 to 30 µM | CCCN(c1nc(-c2ccc(-n3ccnc3)cc2)cs1)c1ccc(N(CC)CC)cc1C [Compound 175] |
| 5.1 to 10 µM | CCN(CC)c1ccc(N(CC)c2nc(-c3ccc(-n4ccnc4)cc3)cs2)c(C)c1 [Compound 176] |
| 1.1 to 5 µM | CCN(CC)c1ccc(Nc2nc(-c3ccc(-n4ccnc4)cc3)cs2)cc1 [Compound 177] |
| 10.1 to 30 µM | Cc1cc(C)cc(Nc2nc(-c3ccc(-n4cnc(-c5ccccc5)c4)cc3)cs2)c1 [Compound 178] |
| 0.2 to 1 µM | CCN(CC)c1ccc(Nc2nc(-c3ccc(-n4cnc(C)c4)cc3)cs2)c(C)c1 [Compound 179] |
| 1.1 to 5 µM | CCN(c1ccc(N2CCOCC2)cc1)c1nc(-c2ccc(-n3ccnc3)cc2)cs1 [Compound 180] |
| 10.1 to 30 µM | COc1cccc(Nc2nc(-c3ccc(-n4ccnc4)cc3)cs2)c1 [Compound 181] |
| 10.1 to 30 µM | COc1ccc(-c2csc(Nc3ccc4c(c3)OCCO4)n2)c(OC)c1 [Compound 182] |
| 10.1 to 30 µM | CSc1cccc(Nc2nc(-c3ccc4c(c3)OCO4)cs2)c1 [Compound 183] |
| 1.1 to 5 µM | CCN(c1ccc(N2CCCCC2)cc1)c1nc(-c2ccc(-n3ccnc3)cc2)cs1 [Compound 184] |
| < 0.2 µM | Cc1ccc(C)c(Nc2nc(-c3ccc(-n4cnc(C)c4)nc3)cs2)c1 [Compound 185] |
| 1.1 to 5 µM | Clc1ccc(Nc2nc(-c3ccc(-n4cnc(Cl)c4Cl)cc3)cs2)cc1Cl [Compound 186] |
